In patent publication US8415469B2, “Compounds and methods for kinase modulation, and indications therefor” (Plexxikon Inc., priority 2005, dated 2013):
One block for each molecule: values may come before it.

Legend:
Format in all cases: biochemical
Jnk3 = target: T1, Jnk3 (Homo sapiens, UniProt P53779); assay: AlphaScreen kinase assay, Jnk3; settings: read-out: IC50, activity toward kinase Jnk3
T1 construct: purchased Upstate Biotechnology

Flt4 = target: T2, Flt4 (Homo sapiens, UniProt P35916); assay: AlphaScreen kinase assay, Flt4; settings: read-out: IC50, activity toward kinase Flt4
T2 construct: purchased ProQinase GmbH (Freiburg, Germany)
How it was run: (§1)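 AlphaScreen, biotin-peptide substrate; streptavidin donor/anti-phospho acceptor beads; decreased emission = inhibition. Cpds 20 mM DMSO stock, 1:3 x 8 conc.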

Abl = target: T3, Abl (Homo sapiens, UniProt P00519); assay: AlphaScreen kinase assay, Abl; settings: read-out: activity toward kinase Abl, IC50
T3 construct: P1121. pET-SPEC BI-PTP Abl G227-V515-X; His6 (N); made in house; host or cells: E. coli (PTP1B co-expressed)
T3 sequence (P00519 with tags, fused parts or gaps): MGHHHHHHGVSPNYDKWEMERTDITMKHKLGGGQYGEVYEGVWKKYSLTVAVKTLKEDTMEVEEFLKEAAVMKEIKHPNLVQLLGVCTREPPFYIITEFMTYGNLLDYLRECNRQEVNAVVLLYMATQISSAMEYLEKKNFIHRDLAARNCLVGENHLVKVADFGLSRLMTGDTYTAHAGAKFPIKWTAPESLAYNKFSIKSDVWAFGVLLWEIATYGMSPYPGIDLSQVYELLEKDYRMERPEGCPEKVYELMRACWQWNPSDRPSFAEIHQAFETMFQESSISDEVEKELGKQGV
How it was run: as §1

Syk = Syk (Homo sapiens, UniProt P43405); assay: AlphaScreen kinase assay, Syk; settings: read-out: IC50, activity toward kinase Syk
Description: AlphaScreen assay was used to screen additional kinases. The assay is similarly dependent on the phosphorylation of a peptide substrate. In this assay, an antibody that recognizes phosphorylated substrate is bound to an acceptor bead. The peptide substrate is attached to biotin, which binds to a donor head that contains streptavidin. Thus phosphorylated substrate is bound by antibody and streptavidin, bringing the donor and acceptor heads into close proximity when kinase is not inhibited. The donor produces singlet oxygen which results in emission from the acceptor when they are in close proximity. Conversely, when kinase is inhibited, the donor and acceptor beads are not associated and the emission from the acceptor is reduced.
AlphaScreen assays were done using compounds dissolved in DMSO to a concentration of 20 mM. The compounds were diluted accordingly to the desired final concentrations in each sample well, using 1:3 serial dilution for a total of 8 concentration points.

B-Raf = target: T4, B-Raf (Homo sapiens, UniProt P15056); assay: AlphaScreen kinase assay, B-Raf; settings: read-out: IC50, activity toward kinase B-Raf
T4 construct: purchased Upstate Biotechnology

Kdr = target: T5, Kdr (Homo sapiens, UniProt P35968); assay: Z'-Lyte FRET kinase assay (Invitrogen), Kdr; settings: read-out: IC50, activity toward kinase Kdr
T5 construct: purchased Invitrogen (assay run by Invitrogen)
T5 sequence (P35968 20-1356): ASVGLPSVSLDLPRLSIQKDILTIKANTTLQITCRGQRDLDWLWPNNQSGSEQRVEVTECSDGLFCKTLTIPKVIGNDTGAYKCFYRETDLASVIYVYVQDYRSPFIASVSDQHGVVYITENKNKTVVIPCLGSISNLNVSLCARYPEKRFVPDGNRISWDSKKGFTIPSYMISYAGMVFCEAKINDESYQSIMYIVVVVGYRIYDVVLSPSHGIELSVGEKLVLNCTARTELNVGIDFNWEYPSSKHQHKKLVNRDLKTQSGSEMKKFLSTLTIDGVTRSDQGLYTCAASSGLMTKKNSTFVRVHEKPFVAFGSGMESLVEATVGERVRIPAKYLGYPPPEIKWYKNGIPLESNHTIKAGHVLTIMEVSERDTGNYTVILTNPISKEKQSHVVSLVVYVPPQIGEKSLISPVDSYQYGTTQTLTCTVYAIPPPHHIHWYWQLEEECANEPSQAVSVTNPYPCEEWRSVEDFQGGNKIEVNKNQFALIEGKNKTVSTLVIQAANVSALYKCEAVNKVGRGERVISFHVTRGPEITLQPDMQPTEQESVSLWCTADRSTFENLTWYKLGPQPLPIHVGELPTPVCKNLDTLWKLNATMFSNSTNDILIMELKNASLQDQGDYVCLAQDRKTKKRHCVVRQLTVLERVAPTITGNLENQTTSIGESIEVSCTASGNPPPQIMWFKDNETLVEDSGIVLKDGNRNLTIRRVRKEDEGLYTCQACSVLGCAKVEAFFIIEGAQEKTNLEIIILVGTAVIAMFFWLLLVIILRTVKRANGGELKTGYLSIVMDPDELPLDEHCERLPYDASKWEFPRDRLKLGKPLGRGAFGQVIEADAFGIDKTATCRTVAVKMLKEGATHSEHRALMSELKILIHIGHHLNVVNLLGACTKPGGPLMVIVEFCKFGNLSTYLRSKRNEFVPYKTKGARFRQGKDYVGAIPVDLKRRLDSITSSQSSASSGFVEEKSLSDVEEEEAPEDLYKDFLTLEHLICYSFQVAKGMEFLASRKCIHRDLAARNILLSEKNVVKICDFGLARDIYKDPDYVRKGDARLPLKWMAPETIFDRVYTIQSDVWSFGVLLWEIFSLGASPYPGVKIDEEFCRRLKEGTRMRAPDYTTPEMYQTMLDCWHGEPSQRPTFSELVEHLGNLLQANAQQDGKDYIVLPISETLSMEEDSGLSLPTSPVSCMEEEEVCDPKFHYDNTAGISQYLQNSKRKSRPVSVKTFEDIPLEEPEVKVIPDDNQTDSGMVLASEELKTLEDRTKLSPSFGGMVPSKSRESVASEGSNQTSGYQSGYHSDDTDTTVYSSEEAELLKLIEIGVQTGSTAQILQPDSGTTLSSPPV

B-Raf V600E = target: T6, B-Raf V600E (Homo sapiens, UniProt P15056, V600E); assay: AlphaScreen kinase assay, B-Raf V600E; settings: read-out: IC50, activity toward kinase B-Raf V600E
T6 construct: P4254. pFastBacBD-CDC37 BRAF D437-K722-X, V600E; His6 with pFastBac HT leader (TEV site) (N); made in house; host or cells: Sf9 (baculovirus; chaperone CDC37 co-expressed)
T6 sequence (P15056 with tags, fused parts or gaps V600E): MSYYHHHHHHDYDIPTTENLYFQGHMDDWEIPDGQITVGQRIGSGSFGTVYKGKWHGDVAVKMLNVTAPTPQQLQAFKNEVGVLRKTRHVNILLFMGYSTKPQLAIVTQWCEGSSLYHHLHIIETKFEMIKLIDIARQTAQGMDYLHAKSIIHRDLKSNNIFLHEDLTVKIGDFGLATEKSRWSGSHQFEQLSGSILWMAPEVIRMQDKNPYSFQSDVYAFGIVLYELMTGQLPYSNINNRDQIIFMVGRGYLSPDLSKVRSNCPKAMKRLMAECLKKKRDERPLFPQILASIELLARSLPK

Jnk1 = target: T7, Jnk1 (Homo sapiens, UniProt P45983); assay: AlphaScreen kinase assay, Jnk1; settings: read-out: IC50, activity toward kinase Jnk1
T7 construct: purchased Upstate Biotechnology
T7 sequence (P45983 whole entry): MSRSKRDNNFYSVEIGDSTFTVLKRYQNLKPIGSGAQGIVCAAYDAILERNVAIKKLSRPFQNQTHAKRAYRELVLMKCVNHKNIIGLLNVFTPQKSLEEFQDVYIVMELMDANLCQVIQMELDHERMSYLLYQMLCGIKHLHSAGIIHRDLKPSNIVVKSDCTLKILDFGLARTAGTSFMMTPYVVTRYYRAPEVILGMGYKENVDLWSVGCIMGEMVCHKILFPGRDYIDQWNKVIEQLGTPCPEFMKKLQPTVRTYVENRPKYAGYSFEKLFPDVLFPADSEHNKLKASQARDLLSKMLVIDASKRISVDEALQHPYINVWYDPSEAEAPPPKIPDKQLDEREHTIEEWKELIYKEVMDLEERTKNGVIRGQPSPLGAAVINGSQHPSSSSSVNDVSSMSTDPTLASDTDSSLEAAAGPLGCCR

Jnk2 = target: T8, Jnk2 (Homo sapiens, UniProt P45984); assay: AlphaScreen kinase assay, Jnk2; settings: read-out: IC50, activity toward kinase Jnk2
T8 construct: purchased Roche Protein Expression Group (Indianapolis, IN)
T8 sequence (P45984 whole entry): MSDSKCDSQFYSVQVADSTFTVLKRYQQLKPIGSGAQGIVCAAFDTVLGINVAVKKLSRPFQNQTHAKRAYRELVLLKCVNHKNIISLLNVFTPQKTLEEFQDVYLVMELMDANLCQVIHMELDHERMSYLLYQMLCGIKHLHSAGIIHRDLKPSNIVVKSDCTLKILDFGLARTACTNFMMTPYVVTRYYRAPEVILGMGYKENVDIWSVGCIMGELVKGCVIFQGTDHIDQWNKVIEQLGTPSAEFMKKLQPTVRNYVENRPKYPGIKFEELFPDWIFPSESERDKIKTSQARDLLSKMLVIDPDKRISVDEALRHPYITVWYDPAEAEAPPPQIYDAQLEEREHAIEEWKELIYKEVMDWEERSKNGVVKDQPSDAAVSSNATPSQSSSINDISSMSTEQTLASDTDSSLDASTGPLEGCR
How it was run: as §1

Ret = target: T9, Ret (Homo sapiens, UniProt P07949); assay: AlphaScreen kinase assay, Ret; settings: read-out: IC50, activity toward kinase Ret
T9 construct: P1378.pET-SF BI-PTP RET H661-R1012 HIS; made in house
T9 sequence (P07949 with tags, fused parts or gaps): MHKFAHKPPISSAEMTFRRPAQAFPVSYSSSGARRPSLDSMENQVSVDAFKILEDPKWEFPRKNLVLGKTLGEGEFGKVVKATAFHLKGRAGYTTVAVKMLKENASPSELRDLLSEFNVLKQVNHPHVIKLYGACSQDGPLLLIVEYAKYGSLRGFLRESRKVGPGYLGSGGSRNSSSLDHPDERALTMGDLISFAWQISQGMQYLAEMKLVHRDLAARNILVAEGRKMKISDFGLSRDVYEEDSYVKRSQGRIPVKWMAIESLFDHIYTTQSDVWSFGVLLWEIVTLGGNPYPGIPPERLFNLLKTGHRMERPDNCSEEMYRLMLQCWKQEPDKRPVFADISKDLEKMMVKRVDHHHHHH

Kit = target: T10, Kit (Homo sapiens, UniProt P10721); assay: AlphaScreen kinase assay, Kit; settings: read-out: IC50, activity toward kinase Kit
T10 construct: P1332.N6 BI PTP KIT M552-K948-X COD; His6 (N); made in house; host or cells: E. coli (PTP1B co-expressed)
T10 sequence (P10721 with tags, fused parts or gaps): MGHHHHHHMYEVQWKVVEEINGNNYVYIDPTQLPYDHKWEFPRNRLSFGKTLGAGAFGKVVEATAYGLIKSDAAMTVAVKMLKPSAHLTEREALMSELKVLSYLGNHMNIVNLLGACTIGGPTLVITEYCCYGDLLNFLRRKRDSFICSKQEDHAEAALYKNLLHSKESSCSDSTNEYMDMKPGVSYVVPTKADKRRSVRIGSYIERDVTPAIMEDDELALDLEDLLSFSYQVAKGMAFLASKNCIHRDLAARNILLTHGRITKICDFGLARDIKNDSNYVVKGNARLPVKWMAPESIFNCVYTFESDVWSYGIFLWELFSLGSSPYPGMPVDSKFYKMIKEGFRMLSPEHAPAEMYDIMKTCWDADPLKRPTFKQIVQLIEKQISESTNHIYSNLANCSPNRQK

Flt1 = target: T11, Flt1 (Homo sapiens, UniProt P17948); assay: AlphaScreen kinase assay, Flt1; settings: read-out: IC50, activity toward kinase Flt1
T11 construct: P1826.pETN6 BI-PTP FLT1 M799-D1165-X WT; His6 (N); made in house; host or cells: E. coli (PTP1B co-expressed)
T11 sequence (P17948 with tags, fused parts or gaps): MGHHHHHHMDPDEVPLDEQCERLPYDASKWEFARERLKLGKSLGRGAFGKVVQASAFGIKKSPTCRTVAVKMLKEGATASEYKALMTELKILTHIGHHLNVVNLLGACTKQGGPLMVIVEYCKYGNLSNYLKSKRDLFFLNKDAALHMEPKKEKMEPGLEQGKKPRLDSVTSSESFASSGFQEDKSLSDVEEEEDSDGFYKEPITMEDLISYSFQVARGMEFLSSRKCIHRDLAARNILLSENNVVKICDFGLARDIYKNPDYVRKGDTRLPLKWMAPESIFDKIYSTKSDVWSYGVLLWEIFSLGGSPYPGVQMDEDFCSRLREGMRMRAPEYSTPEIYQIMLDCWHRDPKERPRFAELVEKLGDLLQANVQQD

FGFR1 = target: T12, FGFR1 (Homo sapiens, UniProt P11362, C488A/C584S); assay: AlphaScreen kinase assay, FGFR1; settings: read-out: IC50, activity toward kinase FGFR
T12 construct: P1351.pET N6 BI-PTP FGFR A458-E765-X C488A, C584S; made in house; host or cells: E. coli (PTP1B co-expressed)
T12 sequence (P11362 458-765 C488A/C584S): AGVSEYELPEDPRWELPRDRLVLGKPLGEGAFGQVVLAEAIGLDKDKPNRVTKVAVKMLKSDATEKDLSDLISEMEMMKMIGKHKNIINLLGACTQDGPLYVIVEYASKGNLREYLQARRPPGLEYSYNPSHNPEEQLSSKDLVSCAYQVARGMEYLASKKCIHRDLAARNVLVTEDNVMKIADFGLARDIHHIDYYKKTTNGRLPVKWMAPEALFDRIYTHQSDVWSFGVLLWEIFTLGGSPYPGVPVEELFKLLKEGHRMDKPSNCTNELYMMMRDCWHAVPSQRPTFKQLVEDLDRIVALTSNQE

Src = target: T13, Src (Homo sapiens, UniProt P12931); assay: AlphaScreen kinase assay, Src; settings: read-out: IC50, activity toward kinase Src
T13 construct: P1144. pET-N6 BI-PTP SRC V86-L536-X; made in house
T13 sequence (P12931 with tags, fused parts or gaps): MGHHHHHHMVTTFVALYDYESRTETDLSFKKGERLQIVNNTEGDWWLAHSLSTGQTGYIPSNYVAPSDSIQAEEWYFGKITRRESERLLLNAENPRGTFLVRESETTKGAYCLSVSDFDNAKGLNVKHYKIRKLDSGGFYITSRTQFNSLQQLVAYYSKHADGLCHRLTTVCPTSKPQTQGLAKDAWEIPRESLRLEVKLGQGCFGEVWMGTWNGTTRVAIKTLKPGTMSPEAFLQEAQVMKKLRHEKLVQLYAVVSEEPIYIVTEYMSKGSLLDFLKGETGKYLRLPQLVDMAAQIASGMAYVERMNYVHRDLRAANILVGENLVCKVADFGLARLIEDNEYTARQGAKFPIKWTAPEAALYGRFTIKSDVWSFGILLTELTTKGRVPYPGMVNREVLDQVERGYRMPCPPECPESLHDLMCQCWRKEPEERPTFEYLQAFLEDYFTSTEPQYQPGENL

Stk6 = target: T14, Stk6 (Homo sapiens, UniProt O14965); assay: Z'-Lyte FRET kinase assay (Invitrogen), Stk6; settings: read-out: IC50, activity toward kinase Stk6
T14 construct: purchased Invitrogen (Carlsbad, Calif.), screening service
T14 sequence (O14965 1-403): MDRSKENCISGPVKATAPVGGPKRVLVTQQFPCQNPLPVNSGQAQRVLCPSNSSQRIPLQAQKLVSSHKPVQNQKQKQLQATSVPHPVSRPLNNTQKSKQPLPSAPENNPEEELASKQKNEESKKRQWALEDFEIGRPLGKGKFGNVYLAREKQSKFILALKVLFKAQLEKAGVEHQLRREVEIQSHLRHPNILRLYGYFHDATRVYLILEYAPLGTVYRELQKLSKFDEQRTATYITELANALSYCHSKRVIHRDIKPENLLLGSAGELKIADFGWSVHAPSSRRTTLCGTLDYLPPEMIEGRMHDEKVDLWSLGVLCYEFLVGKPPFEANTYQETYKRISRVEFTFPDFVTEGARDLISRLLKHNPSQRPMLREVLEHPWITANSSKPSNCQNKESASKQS

MAPKAPK2 = target: T15, MAPKAPK2 (Homo sapiens, UniProt P49137); assay: Z'-Lyte FRET kinase assay (Invitrogen), MAPKAPK2; settings: read-out: IC50, activity toward kinase MAPKAPK2
T15 construct: purchased Invitrogen (assay run by Invitrogen)
T15 sequence (P49137 whole entry): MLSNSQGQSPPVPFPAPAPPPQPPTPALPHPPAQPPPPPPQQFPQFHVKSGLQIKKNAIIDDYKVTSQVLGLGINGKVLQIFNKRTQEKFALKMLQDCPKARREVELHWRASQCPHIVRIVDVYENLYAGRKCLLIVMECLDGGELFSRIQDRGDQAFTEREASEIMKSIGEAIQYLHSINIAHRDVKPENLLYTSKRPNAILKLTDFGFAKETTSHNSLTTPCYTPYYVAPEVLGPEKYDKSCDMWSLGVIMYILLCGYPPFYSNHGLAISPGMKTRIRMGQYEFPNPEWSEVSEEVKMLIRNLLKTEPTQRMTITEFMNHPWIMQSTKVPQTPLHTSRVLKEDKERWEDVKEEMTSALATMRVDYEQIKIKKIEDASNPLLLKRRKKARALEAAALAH
Description: The effect of potential modulators of kinase activity can be measured in a variety of different assays known in the art. For example, direct radiometric, indirect FRET or AlphaScreen assays may be used to assess the level of phosphorylation of a substrate in the presence of test compounds in order to determine the inhibitory affect of the compound on the kinase. Invitrogen (Carlsbad, Calif.) uses a FRET based assay for Btk, EGFR, EphB2, Flt3, lrak4, Kdr, MAP2K1, MAPKAPK2, PDGFRB, PKC theta, Stk6 and Yes. For these assays, compounds of the invention were screened by Invitrogen using Z′-Lyte™ kinase assay.
Briefly, the Invitrogen kinase assay involves use of a specific peptide substrate optimized for each kinase, containing a fluorophore at each end that make up the FRET pair. The peptide sensitivity to proteolytic cleavage depends on phosphorylation of the peptide. Non-phosphorylated peptide is cleaved by a protease while peptide phosphorylated by the kinase is not cleaved. Cleavage of the peptide disrupts the FRET between the donor (coumarin) and acceptor (fluorescein) fluorophores, resulting in an increase in the ratio of donor emission to acceptor emission. The emission ratio of coumarin to fluorescein is used to assess the reaction progress. The extent of phosphorylation is determined from the emission ratio, which is low when the kinase is active (phosphorylated peptide is not cleaved, FRET pair connected) or higher for inhibited kinase (non-phosphorylated peptide is cleaved, FRET pair separated). Thus, the assay involves a kinase reaction in the presence of varying concentrations of a given compound, a development reaction with site specific protease, and detection of the fluorescent emission ratio of coumarin and fluorscein. […] Reaction conditions for each kinase are determined to provide optimal reaction times, incubation temperature, kinase and ATP concentrations. Test samples are made up in 1× kinase buffer (50 mM HEPES pH 7.5, 50 mM MgCl2, 5 mM EGTA, 0.05% BRIJ-35) and compound at desired concentration prepared in DMSO such that the final DMSO is 1%. […] Typically, assay plates are prepared to 10 μl final volume per sample, adding 2.5 μl of compound at 4× the desired concentration in 4% DMSO (serial dilution of compound provides concentration curve), 5 μl of the desired kinase mixed with Z′-LYTE™ peptide substrate (2× in 2× kinase buffer, final peptide at 2 μM), and 2.5 μl of 4×ATP solution. All kinase except for MAP2K1 were at 10 μM ATP in the kinase reaction, while MAP2K1 was at 100 μM. Samples are mixed and the kinase reaction is incubated 1 hour at room temperature, after which 5 μl of development solution is added and mixed. After incubation for another 1 hour at room temperature, 5 μl of stop reagent is added to each sample and mixed. The fluorescence signals are measured to determine the emission ratio.

Gsk3β = Gsk3β (Homo sapiens, UniProt P49841); assay: AlphaScreen kinase assay, Gsk3β; settings: read-out: IC50, activity toward kinase Gsk3β
Chain of Gsk3β (P49841 whole entry): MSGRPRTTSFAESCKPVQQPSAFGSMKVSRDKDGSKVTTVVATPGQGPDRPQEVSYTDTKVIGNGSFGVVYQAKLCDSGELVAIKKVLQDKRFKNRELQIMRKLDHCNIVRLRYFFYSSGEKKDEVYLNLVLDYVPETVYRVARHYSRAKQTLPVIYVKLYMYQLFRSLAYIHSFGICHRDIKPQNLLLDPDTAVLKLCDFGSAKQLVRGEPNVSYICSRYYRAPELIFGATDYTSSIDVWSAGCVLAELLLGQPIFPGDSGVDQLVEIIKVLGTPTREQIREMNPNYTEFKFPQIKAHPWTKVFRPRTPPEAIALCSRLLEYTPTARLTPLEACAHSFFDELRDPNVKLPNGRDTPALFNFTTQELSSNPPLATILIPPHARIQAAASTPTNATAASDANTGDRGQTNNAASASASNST
How it was run: as §1

T1 sequence (P53779 whole entry): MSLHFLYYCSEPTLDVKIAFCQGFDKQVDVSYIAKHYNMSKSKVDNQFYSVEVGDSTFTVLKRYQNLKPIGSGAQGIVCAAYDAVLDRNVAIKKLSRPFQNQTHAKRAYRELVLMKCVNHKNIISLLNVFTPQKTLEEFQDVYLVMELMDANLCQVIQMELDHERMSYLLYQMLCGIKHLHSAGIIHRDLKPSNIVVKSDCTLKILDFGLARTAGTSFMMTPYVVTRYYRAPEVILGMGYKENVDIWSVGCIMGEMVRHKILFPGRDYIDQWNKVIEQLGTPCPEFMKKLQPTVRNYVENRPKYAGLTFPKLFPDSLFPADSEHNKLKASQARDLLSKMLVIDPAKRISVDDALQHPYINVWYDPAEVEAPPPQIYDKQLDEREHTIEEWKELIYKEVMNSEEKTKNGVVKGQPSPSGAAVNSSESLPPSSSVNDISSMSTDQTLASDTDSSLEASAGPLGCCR

- IC50 (Jnk3): ≤ 10 µM
- IC50 (Flt4): ≤ 10 µM
- IC50 (Abl): ≤ 10 µM
- IC50 (Syk): ≤ 10 µM
- IC50 (B-Raf): ≤ 10 µM
- IC50 (Kdr): ≤ 10 µM
- IC50 (B-Raf V600E): ≤ 10 µM
- IC50 (Jnk1): ≤ 10 µM
- IC50 (Jnk2): ≤ 10 µM
- IC50 (Ret): ≤ 10 µM
- IC50 (Kit): ≤ 10 µM
- IC50 (Flt1): ≤ 10 µM
- IC50 (FGFR1): ≤ 10 µM
- IC50 (Src): ≤ 10 µM
Compound: O=C(c1cccc(O)c1)c1c[nH]c2ncc(-c3ccsc3)cc12 [Compound P-0448]

- IC50 (Stk6): ≤ 10 µM
- IC50 (MAPKAPK2): ≤ 10 µM
- IC50 (Kdr): ≤ 10 µM
Compound: Nc1ccc(Sc2c[nH]c3nccc(-c4cccc(CO)c4)c23)cc1 [Compound P-0077]

- IC50 (MAPKAPK2): ≤ 10 µM
Compound: COc1cccc(C(=O)c2c[nH]c3ncc(-c4ccc[nH]4)cc23)c1 [Compound P-0151]

- IC50 (Stk6): ≤ 10 µM
- IC50 (MAPKAPK2): ≤ 10 µM
- IC50 (Gsk3β): ≤ 10 µM
Compound: Cc1cccc(-c2ccnc3[nH]cc(Sc4cccs4)c23)c1 [Compound P-0104]
